We go through 88 molecules from a melting point compilation (Tetko et al.; mined from patent text by program, amines drawn as free bases though some values may be those of a salt).

SMILES strings stand for the structures.

In general, melting point refers to the temperature of the solid-liquid transition. Consider `CC(c1ccc(Br)cc1)N1CCC(NC(=O)CCc2nc(-c3ccccn3)no2)CC1` (stereo not drawn), for which the melting point fell in the range of 142 to 143 °C.

As for `CCCCc1nc2c(C(F)(F)F)cccc2c(O)c1C(=O)OCC`, the melting point was in the range of 68 to 69 °C.

Turning to `CN(C)C(=S)Oc1ccccc1C#N`, the melting point amounted to 112 °C.

`Cc1c(F)c(=O)n(-c2cc(C(=O)OC(C)C)c(Cl)cc2F)c(=O)n1C` registered a melting point of 112 to 115 °C.

`COc1ccc(NN=C2CCCCC2=O)cc1` returned a melting point of 177 °C.

`CC(=O)N[C@H]1CCN(C(=O)c2ccc(-c3[nH]nc4c3C(=O)c3c(NC(=O)NN5CCOCC5)cccc3-4)s2)C1` came in with a melting point of 264 to 265 °C.

`CN(CCSc1ccc2ncc([N+](=O)[O-])n2n1)c1ccnc(CO)c1Cl` had a melting point of 189 to 191 °C.

Molecule `O=C(O)CCCc1nc2nc[nH]c2c2nc(-c3ccccc3)nn12` showed a melting point of 280 °C.

In turn, `CCCCCCOc1cccc2ncccc12` returned a melting point of 46 to 49 °C.

In the case of `CC(=O)Oc1ccc(C(=NNc2cccc([N+](=O)[O-])c2)c2ccc(OC(C)=O)cc2)cc1`, the melting point lay within 88 to 90 °C.

Consider `CC1CCC(N2c3ccccc3Oc3c(Cl)cccc32)=N1` (stereo not drawn), for which the melting point was in the range of 120 to 122 °C.

Turning to `CCOC(=O)c1nc2c(=O)[nH]c3cc(C(F)(F)F)ccc3n2c1CNCc1ccccc1`, the melting point is over 250 °C.

Regarding `CCOC(=O)C1CCN(c2ccc([N+](=O)[O-])c(C=C3NC(=O)NC3=O)c2)CC1`, the melting point was in the range of 221 to 223 °C.

On to `NC(=O)N1C(=O)C(C(=O)c2ccccc2)c2ncc(Cl)cc21` (stereo not drawn), for which the melting point amounted to 260 °C.

`O=C(c1c(F)cccc1F)C1CC1c1ccc(Br)cc1` (stereo not drawn) came in with a melting point of 64 to 65 °C.

Take `OC(c1ccc(F)cc1)(c1ccc(F)cc1)c1nccn1Cc1ccccc1`: the melting point was in the range of 176 to 177 °C.

`COc1ccc(-c2cc(N3CCN(C(=O)c4cc(S(N)(=O)=O)c(Cl)cc4Cl)CC3)nc(C)n2)cc1OC` came in with a melting point of 150 to 160 °C.

In turn, `O=C(O)c1c(-c2cccc(Cl)c2)csc1N1C(=O)c2ccccc2C1=O` returned a melting point of 203 to 204 °C.

Molecule `CCNC(=O)c1cccs1` had a melting point of 75 to 78 °C.

`COc1cccc(CC(=O)O)c1OCCCc1cn(-c2ccc(C(F)(F)F)cn2)nc1C(C)(C)C` came in with a melting point of 94 to 95 °C.

`O=C(O)c1ccc(CO/N=C/c2cn(Cc3ccccc3)c3ccccc23)cc1Br` registered a melting point of 107 to 109 °C.

For the molecule `OC(CS)(Cn1cncn1)c1ccc(Cl)cc1Cl` (stereo not drawn), the melting point lay in the range of 139 to 142 °C.

The molecule `COc1ccc(CS(=O)(=O)c2cc3ccc(OC)cc3oc2=O)cc1` came in with a melting point of 179 to 180 °C.

`CC(=O)NCC[C@@H]1CCc2ccc3nn(C)c(Cl)c3c21` returned a melting point of 168 to 171 °C.

Regarding `O=[N+]([O-])c1ccc(Oc2ccc(C(c3ccc(Oc4ccc([N+](=O)[O-])c(O)c4)cc3)(C(F)(F)F)C(F)(F)F)cc2)cc1O`, the melting point is 148 to 151 °C.

Take `COC(=O)c1ccc(CCC(CS(=O)(=O)c2ccc(Oc3ccc(OC(F)(F)F)cc3)cc2)N(O)C=O)cc1` (stereo not drawn): the melting point lay within 153 to 154 °C.

In the case of `CCOC(=O)CCC(=O)c1ccc(CCN(CC=Cc2ccc(Cl)cc2)S(=O)(=O)c2ccc(Cl)cc2)cc1`, the melting point was 100 to 101 °C.

Molecule `CC(C)(CC(O)(Cn1cc(Cl)c(=O)c2sccc21)C(F)(F)F)c1cc(-c2cncnc2)cc2c1OCC2` (stereo not drawn) had a melting point of 218 to 219 °C.

`CC(=O)N1CCC(CCC(=O)c2ccc3c(c2)CCO3)CC1` displayed a melting point of 93 to 95 °C.

For `COc1ccc(C(=C/C=C/C(=O)Nc2ccc(-c3cccnc3)cc2)c2ccc(OC)cc2)cc1`, the melting point was in the range of 210 to 212 °C.

On to `Cc1cccc(NCCNc2cccc(C)c2C)c1C`, for which the melting point was in the range of 130 to 133 °C.

`CCOC(=O)c1c(N)sc2c1CN(C(=O)OCC)C2` yielded a melting point of 154 to 156 °C.

Molecule `COc1cc(N2CCN(C)CC2)ccc1-c1nc2c(N[C@H]3[C@@H](C(N)=O)[C@@H]4C=C[C@H]3C4)c(Br)cnc2[nH]1` had a melting point of 185 to 195 °C.

On to `CC(C)c1cc(C=Cc2ccccc2O)on1`, for which the melting point fell in the range of 129 to 133 °C.

As to `Cc1cc(C(O)=S)cc(N)c1Cc1ccccc1`, the melting point lay in the range of 153 to 154 °C.

Regarding `CCc1cn2ccccc2c1S(=O)(=O)c1ccc(O)c(C)c1`, the melting point came to 214 °C.

`CCc1ncnc(N[C@H]2CC[C@@H](C=O)CC2)c1Cl` had a melting point of 96 to 97 °C.

With `CC1CC2=CC(=O)CCC2=C2CCC3(C)C(=O)CCC3C21` (stereo not drawn), the melting point lay in the range of 204 to 205 °C.

Molecule `Cn1cc(-c2nc(C(F)(F)F)c[nH]2)cn1` had a melting point of 206 to 207 °C.

For `Cc1c(Cc2cccc(C(F)(F)F)c2)oc2c(-c3cccc(C(=O)NCC(N)=O)c3)cccc12`, the melting point fell in the range of 194 to 195 °C.

In turn, `Cc1nc(Nc2ccc(Cl)cc2)sc1-c1nc2ccccc2c(=O)n1-c1ccccc1` gave a melting point of 230 to 232 °C.

In turn, `COc1cc2cc(C(=O)C(C)CC#N)sc2cc1OC` (stereo not drawn) showed a melting point of 148 to 150 °C.

`CC(C)N1C(=O)N(c2ccc(F)cc2)CSC1=NC(C)(C)C` displayed a melting point of 109 to 110 °C.

On to `CCc1nc2c(C)cc(C)nc2n1Cc1ccc(-c2ccccc2-c2nc(=O)o[nH]2)cc1`, for which the melting point was 149 to 152 °C.

For the molecule `O=C(CCO)Nc1cccc(-c2ccc3c(c2)C(c2ccc(Cl)cc2Cl)CC3)c1` (stereo not drawn), the melting point fell in the range of 202 to 203 °C.

For `CCCCCCCCCCC/C=C\c1ccc(C=CC(=O)OC)cc1`, the melting point lay within 60 to 62 °C.

`COc1ccc(CCNCC(O)c2ccccc2C)cc1OC` (stereo not drawn): the melting point lay within 91 to 94 °C.

`CCNC(=O)c1ccc(N2CCNCC2)c(Cl)c1` yielded a melting point of 117 to 119 °C.

As to `O=[N+]([O-])c1cn(-c2cccnc2)nc1C(F)(F)F`, the melting point lay within 121 to 123 °C.

As for `CN1C(=O)Nc2ccccc2C1(O)C(=O)NC(N)=O` (stereo not drawn), the melting point is over 280 °C.

Molecule `Cc1cc(C)c(S(=O)(=O)NCC(O)(Cn2cncn2)c2ccc(Cl)cc2Cl)c(C)c1` (stereo not drawn) came in with a melting point of 171 to 172 °C.

Turning to `CN(C)c1ccc([PH](=O)c2ccc(N(C)C)cc2)cc1`, the melting point was 152 °C.

`CSc1cc(C(C)=O)ccc1OCCCBr` displayed a melting point of 120 to 122 °C.

Turning to `CN1C[C@H](CN2CCC(O)(c3ccc(Cl)cc3)CC2)C=C2c3cccc4[nH]c(Cl)c(c34)C[C@H]21`, the melting point is over 192 °C.

`CN(C(=O)OC(C)(C)C)c1cc(Oc2ccc(C34CC5CC(CC(C5)C3)C4)cc2)ccc1N` showed a melting point of 85 to 90 °C.

Consider `CC(C)(C)C(=O)C=Cc1cnc2ccccc2c1`, for which the melting point lay in the range of 146 to 148 °C.

As to `CC(C)c1ccc2c(CCCCN(C)S(=O)(=O)c3ccccc3)cc(C(=O)O)c-2cc1`, the melting point fell in the range of 153 to 155 °C.

As for `CCC(=O)OCOC(=O)C1=C(C)N(COC)C(C)=C(C(=O)OCOC(=O)CC)C1c1cccc([N+](=O)[O-])c1`, the melting point lay in the range of 86 to 87 °C.

`CS(=O)(=O)c1ccc(-c2cc(/C=C/CO)nn2CC2CCCCC2)cc1` gave a melting point of 49 to 52 °C.

For the molecule `Cn1nnnc1-c1cnc2ccccn2c1=O`, the melting point is 280 to 282 °C.

`Cc1nnc(-c2ccc3ncc(-c4ccc(S(C)=O)cc4)n3c2)o1` (stereo not drawn): the melting point was found to be 190 °C.

Molecule `CCOC(=O)C1CCc2cc(NS(C)(=O)=O)ccc2O1` (stereo not drawn) came in with a melting point of 111 °C.

Molecule `O[C@@H]1CNC[C@H]1Oc1ccccc1` (relative stereo) displayed a melting point of 120 to 122 °C.

`COc1ccc(C(O)(c2ccc(C(C)C)cc2)C(C)C)c(OC)c1` (stereo not drawn) returned a melting point of 80 to 81 °C.

`CCC(C)(C)C1=C(OC(C)=O)C(=O)c2ccccc2C1=O` yielded a melting point of 53 °C.

Molecule `O=C(OCC(CO)(CO)COC(=O)c1ccccc1)c1ccccc1` yielded a melting point of 104 to 105 °C.

`CN1C(=O)C(=CN2CCOCC2)N=C(c2ccccc2Cl)c2cc(F)ccc21` came in with a melting point of 110 to 115 °C.

`CN(C)C(=O)Oc1cccc(-c2cc(=O)c3cc(N(C)C)ccc3o2)c1`: the melting point lay within 167 to 168 °C.

`CCCCOc1cc(C(=O)O)cc(NC=O)c1C(=O)c1ccccc1` showed a melting point of 180 to 183 °C.

With `CCCn1c(COCC)nc2c(N)nc3cc(O)ccc3c21`, the melting point is over 250 °C.

In turn, `C#Cc1cc(Nc2ncnc3cnc(F)cc23)ccc1Cl` gave a melting point of 218 to 222 °C.

On to `COc1cccc(-c2cc3c4ccccc4ccn3n2)c1`, for which the melting point is 109 to 111 °C.

As for `Cc1cc(C)c(-c2ccnc(Nc3ccc(F)cc3)n2)[nH]1`, the melting point was in the range of 168 to 172 °C.

The molecule `c1ccc2c(c1)CC1(CCN(CCc3c[nH]c4ccccc34)CC1)O2` displayed a melting point of 167 to 169 °C.

Molecule `Cc1cc(C#N)cc(C(=O)c2c(C(C)C)c(=O)[nH]c(=O)n2Cc2cc(F)cc(NC(=O)C(F)(F)F)c2)c1` gave a melting point of 263 to 264 °C.

With `Cc1cn(CC(=O)c2ccc(-c3ccc(N4C[C@H](Cn5ccnn5)OC4=O)cc3F)cn2)c(C)n1`, the melting point came to 78 °C.

`O=c1[nH]c(N2CCCC(CO)C2)cc2ccccc12` (stereo not drawn) came in with a melting point of 143 to 144 °C.

With `COc1ccc([C@H](C)NC(=O)c2cccnc2Oc2ccc(F)cc2)cc1`, the melting point is 97 to 99 °C.

For `COc1ccccc1N1CCN(C[C@@H](CC2CCCCC2)NC(=O)C2(C)CCCCC2)CC1`, the melting point fell in the range of 119 to 121 °C.

The molecule `CCOC(=O)c1[nH]c2cc3[nH]c(C)c(C(=O)OCC)c3c(C)c2c1C` returned a melting point of 216 °C.

For the molecule `CCCC1=C(C(=O)OCC)C(c2ccccc2Cl)c2cn(C(=O)Oc3ccccc3)nc2N1` (stereo not drawn), the melting point fell in the range of 156 to 157 °C.

`Cc1ccc(CC2CCN(C(=O)C(=O)Nc3ccc4[nH]c(=O)sc4c3)CC2)cc1` returned a melting point of 221 to 222 °C.

In the case of `CCCCCCC(C)NC1=NS(=O)(=O)c2sc(Cl)cc2N1` (stereo not drawn), the melting point fell in the range of 179 to 181 °C.

`CCCc1cc(CC(=O)O)ccc1OC1COc2ccc(C(C)=O)c(O)c2C1` (stereo not drawn) came in with a melting point of 129 to 130 °C.

Regarding `Brc1cc2c(cn1)[nH]c1ccccc12`, the melting point was 300 °C.

`COc1c(CN2C(=O)c3ccccc3C2=O)n(C)c(=O)c2ccc(Cl)cc12` displayed a melting point of 248 to 249 °C.

`COCCNc1ccc(C(=O)c2c(C)n(CCN3CCOCC3)c3ccccc23)cc1` showed a melting point of 121 to 123 °C.

In turn, `CSC(=S)N1CCN(Cc2ccccc2N)CC1` gave a melting point of 110 to 114 °C.
